Measured values from patent US10570180B2, “Anti-bacterial agents and their use in therapy” (priority 2015, dated 2020).
Values after ≈ are worked out from the molar mass of the structure shown. Read-outs that look alike come from different tables or passages of the source. Ends that are not written are not given here.

Key:
[1] = system: Staphylococcus aureus MRSA 1040s; experiment: microbe, parasite or virus in culture; type: cell-based; details: for MIC when combined with 10 μg/ml of ATX-101: Table 6, MRSA 1040s
Procedure: (§1) ATX-101 was dissolved in Mueller-Hinton broth to 1.25 times of the desired assay concentration. Antibiotics were dissolved in Mueller-Hinton broth and Mueller-Hinton broth with ATX-101 at a concentration of 1.25 times the highest desired assay concentrations. Antibiotics were pharmaceutical grade purchased from Sigma-Aldrich.
(§2) Two-fold serial dilutions of antibiotics were made in Mueller-Hinton with different concentrations of ATX-101, and the solutions were placed in four parallel wells is Nunc 384-well micro plates (30 μl per well in Nunc 242757 microplates). A group of 8 wells with no addition of antibiotics for each ATX-101 concentration was included on each micro plate as a growth reference.
(§3) At the day of analysis, overnight TSB cultures inoculated from freeze stocks (6 ml in 50 ml tube tilted to 45-degrees angle, 200 rpm, 2.5 cm amplitude, 37° C.) were diluted in TSB until the OD800 was 0.10, and further diluted 1:40 in Mueller-Hinton broth. Each well in the 384-well assay plates was inoculated with 7.5 μl of the diluted culture, giving the same dilution of the culture in the assay cultures. The microplates were placed in plastic bags and incubated without shaking at 37° C. The optical density at 600 nm in the microwells was measured after approximately 19 hours of incubation, and the relative growth yield was calculated based on the growth in the reference groups. The MIC value was set to the highest concentration giving less than 30% growth in all 4 parallel wells within the sample groups. The microplates were further incubated for 6 hours, and optical density in the cultures was measured once more for confirmation of the estimated MIC-values.
as §1, with “The APIM peptide was” for “ATX-101 was”, “with APIM” for “with ATX-101”
as §2, with “APIM,” for “ATX-101,”, “in” for “is”, “APIM” for “ATX-101”, “as” for “as a”
as §3, with “inoculated” for “inoculated from”, “OD600” for “OD800”, “culture.” for “culture, giving the same dilution of the culture in the assay cultures.”, “yield in each well” for “yield”
In view of the anti-bacterial effect of ATX-101 on strains of MRSA, the MIC for a variety of APIM variants was determined using Staphylococcus aureus MRSA 1040s. […] A cell penetrating peptide (SEQ ID NO: 337) present in all of the APIM peptides, was used as a negative control.
Next, the effect of APIM peptides on the MIC of antibiotics was determined using Staphylococcus aureus MRSA 1040s.
(§4) The MICS for various APIM peptides were determined for various bacteria, as described above.

[2] = system: A. baumanii ATCC 19606; experiment: MIC assay of antibiotics with ATX-101; type: cell-based; details: Acinetobacter baumannii
Procedure: as §1, with “The APIM peptide was” for “ATX-101 was”, “with APIM” for “with ATX-101”
as §2, with “APIM,” for “ATX-101,”, “in” for “is”, “APIM” for “ATX-101”, “as” for “as a”
as §3, with “inoculated” for “inoculated from”, “OD600” for “OD800”, “culture.” for “culture, giving the same dilution of the culture in the assay cultures.”, “yield in each well” for “yield”

[3] = system: E. faecium CTC 492; experiment: MIC assay of antibiotics with ATX-101; type: cell-based, Enterococcus faecium; details: for MIC: Enterococcus faecium, CTC492, E. faecium CTC 492, read-out: Est MIC
Procedure: (§5) The minimum inhibitory concentration (MIC) of ATX-101 (SEQ ID NO: 1289) was determined for various gram negative and gram positive bacteria. The bacteria, Pseudomonas aeruginosa ATCC 15692, Acinetobacter baumenni ATCC 19600, Escherichia coli ATCC 25922, Pseudomonas aeruginosa TO-5A (clinical isolate), Enterococous faecium CCUG 37832, Enterococcus faecium CTC 492, Micrococcus luteus ATCC 9341 and Escherichie coli NCIMB 12210 were grown in the presence of various concentrations of ATX-101 and/or antibiotic.
as §1, §2, §3
as §1, with “The APIM peptide was” for “ATX-101 was”, “with APIM” for “with ATX-101”
as §2, with “APIM,” for “ATX-101,”, “in” for “is”, “APIM” for “ATX-101”, “as” for “as a”
as §3, with “inoculated” for “inoculated from”, “OD600” for “OD800”, “culture.” for “culture, giving the same dilution of the culture in the assay cultures.”, “yield in each well” for “yield”

[4] = system: E. faecium TO-12; type: cell-based
Procedure: as §1, §2, §3, §4

[5] = system: Staphylococcus aureus NCTC 6571; type: cell-based; details: NCTC 6571
Procedure: as §1, §2, §3, §4

[6] = system: E. faecium CCUG 37832 (TO-3); type: cell-based, Enterococcus faecium; details: CCUG 37832
Procedure: as §1, §2, §3
Accordingly, concentrations of 8 μg/ml and 16 μg/ml of ATX-101 were combined with various antibiotics selected from; 2,4-Diamin, S. methizol, S. methoxa, S. dimetho, Surfaceta, Trimeth, Flumeq, Levoflox, Pruliflox, Metronid and Nitrofur.
as §4

[7] = system: E. coli NCIMB 12210; experiment: MIC assay of antibiotics with ATX-101; type: cell-based, Escherichia coli; details: Escherichia coli, NCIMB12210, E. coli NCIMB 12210, read-out: Est MIC
Procedure: as §5, §1, §2, §3
as §1, with “The APIM peptide was” for “ATX-101 was”, “with APIM” for “with ATX-101”
as §2, with “APIM,” for “ATX-101,”, “in” for “is”, “APIM” for “ATX-101”, “as” for “as a”
as §3, with “inoculated” for “inoculated from”, “OD600” for “OD800”, “culture.” for “culture, giving the same dilution of the culture in the assay cultures.”, “yield in each well” for “yield”

[8] = Staphylococcus aureus, Table 6, alone, MRSA 1040s, read-out: MIC
[9] = ATCC19606, A. baumanii ATCC 19606, APIM (ATX-101) conc. 2 μg/ml, read-out: Est MIC
[10] = ATCC19606, A. baumanii ATCC 19606, APIM (ATX-101) conc. 4 μg/ml, read-out: Est MIC
[11] = ATCC19606, A. baumanii ATCC 19606, APIM (ATX-101) conc. 8 μg/ml, read-out: Est MIC
[12] = ATCC19606, A. baumanii ATCC 19606, APIM conc. 0 μg/ml, read-out: Est MIC

CC[C@H]1OC(=O)[C@H](C)[C@@H](O[C@H]2C[C@@](C)(OC)[C@@H](O)[C@H](C)O2)[C@H](C)[C@@H](O[C@@H]2O[C@H](C)C[C@H](N(C)C)[C@H]2O)[C@](C)(O)C[C@@H](C)CN(C)[C@H](C)[C@@H](O)[C@]1(C)O [Azithromycin, reference compound]
MIC [1, 8]: > 1030 µg/mL | MIC when combined with 10 μg/ml of ATX-101 [1]: 8 µg/mL

CN[C@H](CC(C)C)C(=O)N[C@H]1C(=O)N[C@@H](CC(N)=O)C(=O)N[C@H]2C(=O)N[C@H]3C(=O)N[C@H](C(=O)N[C@H](C(=O)O)c4cc(O)cc(O)c4-c4cc3ccc4O)[C@H](O)c3ccc(c(Cl)c3)Oc3cc2cc(c3O[C@@H]2O[C@H](CO)[C@@H](O)[C@H](O)[C@H]2O[C@H]2C[C@](C)(N)[C@H](O)[C@H](C)O2)Oc2ccc(cc2Cl)[C@H]1O [Vancomycin]
MIC ([2]; ATCC19606, read-out: Est MIC, A. baumanii ATCC 19606, APIM (ATX-101) conc. 2 μg/ml): 32 µg/mL (≈ 22.1 µM) | MIC ([2]; ATCC19606, read-out: Est MIC, A. baumanii ATCC 19606, APIM (ATX-101) conc. 4 μg/ml): 16 µg/mL (≈ 11 µM) | MIC ([2]; ATCC19606, read-out: Est MIC, A. baumanii ATCC 19606, APIM conc. 0 μg/ml): 32 µg/mL (≈ 22.1 µM)

NC[C@H]1O[C@H](O[C@H]2[C@H](O)[C@@H](O[C@H]3O[C@H](CO)[C@@H](O)[C@H](N)[C@H]3O)[C@H](N)C[C@@H]2N)[C@H](N)C[C@@H]1O [Tobramycin]
MIC ([3]; APIM (ATX-101) conc. 6.5 μg/ml): 64 µg/mL (≈ 137 µM) | MIC ([3]; APIM (ATX-101) conc. 13 μg/ml): 32 µg/mL (≈ 68.4 µM) | MIC ([3]; APIM conc. 0 μg/ml): 64 µg/mL (≈ 137 µM)

MDRFLSKWKKKRKIRRRRRRRRRRR [SEQ ID NO: 1301]
MIC [4]: 25.3 µM | MIC [5]: 37.9 µM | MIC ([1]; 1040s): 7.5 µM | MIC [6]: 7.5 µM

CC[C@H]1OC(=O)[C@H](C)[C@@H](O[C@H]2C[C@@](C)(OC)[C@@H](O)[C@H](C)O2)[C@H](C)[C@@H](O[C@@H]2O[C@H](C)C[C@H](N(C)C)[C@H]2O)[C@](C)(O)C[C@@H](C)C(=O)[C@H](C)[C@@H](O)[C@]1(C)O [Erythromycin]
MIC ([3]; APIM (ATX-101) conc. 6.5 μg/ml): 4 µg/mL (≈ 5.45 µM) | MIC ([3]; APIM (ATX-101) conc. 13 μg/ml): 1 µg/mL (≈ 1.36 µM) | MIC ([3]; APIM conc. 0 μg/ml): 4 µg/mL (≈ 5.45 µM) | MIC [1, 8]: > 1030 µg/mL | MIC when combined with 10 μg/ml of ATX-101 [1]: 2 µg/mL

CC1(C)S[C@@H]2[C@H](NC(=O)[C@H](N)c3ccccc3)C(=O)N2[C@H]1C(=O)O [Ampicillin]
MIC ([3]; APIM (ATX-101) conc. 6.5 μg/ml): 0.5 µg/mL (≈ 1.43 µM) | MIC ([3]; APIM (ATX-101) conc. 13 μg/ml): 0.5 µg/mL (≈ 1.43 µM) | MIC ([3]; APIM conc. 0 μg/ml): 1 µg/mL (≈ 2.86 µM) | ampicillin concentration sufficient to inhibit bacterial growth ([3]; combined with 6.5 μg/ml or 13 μg/ml ATX-101, FIG. 3): about 0.5 μg/ml | ampicillin concentration required for the same level of inhibition ([3]; without ATX-101, FIG. 3): 1 µg/mL

CO[C@H]1/C=C/O[C@@]2(C)Oc3c(C)c(O)c4c(O)c(c(/C=N/N5CCN(C)CC5)c(O)c4c3C2=O)NC(=O)/C(C)=C\C=C\[C@H](C)[C@H](O)[C@@H](C)[C@@H](O)[C@@H](C)[C@H](OC(C)=O)[C@@H]1C [Rifampicin]
MIC ([3]; APIM (ATX-101) conc. 6.5 μg/ml): 32 µg/mL (≈ 38.9 µM) | MIC ([3]; APIM (ATX-101) conc. 13 μg/ml): 4 µg/mL (≈ 4.86 µM) | MIC ([3]; APIM (ATX-101) conc. 20 μg/ml): 8 µg/mL (≈ 9.72 µM) | MIC ([3]; APIM conc. 0 μg/ml): 16 µg/mL (≈ 19.4 µM) | MIC [2, 9]: 2 µg/mL (≈ 2.43 µM) | MIC [2, 10]: 1 µg/mL (≈ 1.22 µM) | MIC [2, 11]: 1 µg/mL (≈ 1.22 µM) | MIC [2, 12]: 2 µg/mL (≈ 2.43 µM)

CO[C@@H]1[C@@H](OC(N)=O)[C@@H](O)[C@H](Oc2ccc3c(O)c(NC(=O)c4ccc(O)c(CC=C(C)C)c4)c(=O)oc3c2C)OC1(C)C [Novobiocin]
MIC ([7]; APIM (ATX-101) conc. 2 μg/ml): 32 µg/mL (≈ 52.2 µM) | MIC ([7]; APIM (ATX-101) conc. 4 μg/ml): 8 µg/mL (≈ 13.1 µM) | MIC ([7]; APIM (ATX-101) conc. 8 μg/ml): 4 µg/mL (≈ 6.53 µM) | MIC ([7]; APIM conc. 0 μg/ml): 64 µg/mL (≈ 104 µM) | MIC [2, 9]: 8 µg/mL (≈ 13.1 µM) | MIC [2, 10]: 8 µg/mL (≈ 13.1 µM) | MIC [2, 11]: 2 µg/mL (≈ 3.26 µM) | MIC [2, 12]: 8 µg/mL (≈ 13.1 µM)
